Reference: ChEMBL document CHEMBL1201862, “PubChem BioAssay data set” (2004)
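Where inhibition never reached the appropriate level, the endpoint shown equals the highest concentration tested. Otherwise, values were interpolated linearly from a five-concentration, 48-hour dose response in 96-well plates. GI50: concentration for 50% inhibition of growth.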 Activity calls are given as the source filed them. Rule as the data show it: active = GI50 up to about 1.1 µM and inactive = higher.

Experiments:
Test in all cases: growth of human tumour cells (NCI), 48 h
[1] = tested on: MDA-MB-231
[2] = tested on: MDA-MB-435
[3] = tested on: SK-MEL-2
[4] = tested on: OVCAR-5
[5] = tested on: EKVX
[6] = tested on: RPMI-8226
[7] = tested on: COLO 205
[8] = tested on: OVCAR-4
[9] = tested on: Hs-578T
[10] = tested on: MDA-N
[11] = tested on: SK-MEL-28
[12] = tested on: PC-3
[13] = tested on: OVCAR-3
[14] = tested on: OVCAR-8
[15] = tested on: U-251
[16] = tested on: HL-60
[17] = tested on: SF-539
[18] = tested on: 786-0
[19] = tested on: DU-145
[20] = tested on: A549
[21] = tested on: Malme-3M
[22] = tested on: UO-31
[23] = tested on: NCI-H460
[24] = tested on: KM12
[25] = tested on: CAKI-1
[26] = tested on: LOX IMVI
[27] = tested on: CCRF-CEM
[28] = tested on: NCI-H522
[29] = tested on: SF-295
[30] = tested on: SR
[31] = tested on: NCI-H23
[32] = tested on: BT-549
[33] = tested on: UACC-257
[34] = tested on: SW-620
[35] = tested on: K562
[36] = tested on: RXF 393
[37] = tested on: ACHN
[38] = tested on: A498
[39] = tested on: MOLT-4
[40] = tested on: UACC-62
[41] = tested on: SK-MEL-5
[42] = tested on: SN12C
[43] = tested on: HT-29
[44] = tested on: HCT-15
[45] = tested on: NCI/ADR-RES
[46] = tested on: HCC 2998
[47] = tested on: TK-10
[48] = tested on: HOP-62
[49] = tested on: NCI-H226
[50] = tested on: HCT-116
[51] = tested on: IGROV-1
[52] = tested on: SF-268
[53] = tested on: MCF7
[54] = tested on: M14
[55] = tested on: SNB-75
[56] = tested on: HOP-92
[57] = tested on: SNB-19

## Cc1n[nH]c(=O)n1/N=C\c1ccccc1
[1]
  GI50: > 100 µM (inactive)
[2]
  GI50: > 100 µM (inactive)
[3]
  GI50: 83.9 µM (inactive)
[4]
  GI50: > 100 µM (inactive)
[5]
  GI50: > 100 µM (inactive)
[6]
  GI50: > 100 µM (inactive)
[7]
  GI50: > 100 µM (inactive)
[8]
  GI50: > 100 µM (inactive)
[9]
  GI50: > 100 µM (inactive)
[10]
  GI50: > 100 µM (inactive)
[11]
  GI50: > 100 µM (inactive)
[12]
  GI50: > 100 µM (inactive)
[13]
  GI50: > 100 µM (inactive)
[14]
  GI50: > 100 µM (inactive)
[15]
  GI50: > 100 µM (inactive)
[16]
  GI50: > 100 µM (inactive)
[17]
  GI50: > 100 µM (inactive)
[18]
  GI50: > 100 µM (inactive)
[19]
  GI50: > 100 µM (inactive)
[20]
  GI50: > 100 µM (inactive)
[21]
  GI50: > 100 µM (inactive)
[22]
  GI50: > 100 µM (inactive)
[23]
  GI50: > 100 µM (inactive)
[24]
  GI50: > 100 µM (inactive)
[25]
  GI50: > 100 µM (inactive)
[26]
  GI50: > 100 µM (inactive)
[27]
  GI50: > 100 µM (inactive)
[28]
  GI50: > 100 µM (inactive)
[29]
  GI50: 59.2 µM (inactive)
[30]
  GI50: > 100 µM (inactive)
[31]
  GI50: > 100 µM (inactive)
[32]
  GI50: > 100 µM (inactive)
[33]
  GI50: > 100 µM (inactive)
[34]
  GI50: > 100 µM (inactive)
[35]
  GI50: > 100 µM (inactive)
[36]
  GI50: < 0.01 µM (active)
[37]
  GI50: > 100 µM (inactive)
[38]
  GI50: > 100 µM (inactive)
[39]
  GI50: > 100 µM (inactive)
[40]
  GI50: > 100 µM (inactive)
[41]
  GI50: > 100 µM (inactive)
[42]
  GI50: > 100 µM (inactive)
[43]
  GI50: > 100 µM (inactive)
[44]
  GI50: > 100 µM
[45]
  GI50: > 100 µM (inactive)
[46]
  GI50: > 100 µM (inactive)
[47]
  GI50: > 100 µM (inactive)
[48]
  GI50: > 100 µM (inactive)
[49]
  GI50: > 100 µM (inactive)
[50]
  GI50: > 100 µM (inactive)
[51]
  GI50: > 100 µM (inactive)
[52]
  GI50: 0.0855 µM (active)
[53]
  GI50: > 100 µM (inactive)

## COc1cc(OC2OC(COC(=O)c3cc(O)c(O)c(O)c3)C(O)C(O)C2O)ccc1O (centres undefined)
[1]
  GI50: 34.5 µM (inactive)
[54]
  GI50: 90.8 µM (inactive)
[2]
  GI50: 24.4 µM (inactive)
[3]
  GI50: > 100 µM (inactive)
[4]
  GI50: > 100 µM (inactive)
[5]
  GI50: > 100 µM (inactive)
[55]
  GI50: > 100 µM (inactive)
[6]
  GI50: > 100 µM (inactive)
[7]
  GI50: > 100 µM (inactive)
[8]
  GI50: 55.3 µM (inactive)
[9]
  GI50: > 100 µM (inactive)
[10]
  GI50: 30.5 µM (inactive)
[11]
  GI50: > 100 µM (inactive)
[12]
  GI50: 26.2 µM (inactive)
[13]
  GI50: 84.1 µM (inactive)
[14]
  GI50: 89.9 µM (inactive)
[15]
  GI50: > 100 µM (inactive)
[16]
  GI50: 93.1 µM (inactive)
[17]
  GI50: > 100 µM (inactive)
[56]
  GI50: 32.7 µM (inactive)
[18]
  GI50: > 100 µM (inactive)
[19]
  GI50: > 100 µM (inactive)
[20]
  GI50: > 100 µM (inactive)
[21]
  GI50: > 100 µM (inactive)
[22]
  GI50: 33.2 µM (inactive)
[23]
  GI50: > 100 µM (inactive)
[24]
  GI50: 88.1 µM (inactive)
[25]
  GI50: 69.2 µM (inactive)
[26]
  GI50: 29.5 µM (inactive)
[27]
  GI50: 42.2 µM (inactive)
[28]
  GI50: 48 µM (inactive)
[57]
  GI50: > 100 µM (inactive)
[29]
  GI50: 78.7 µM (inactive)
[30]
  GI50: > 100 µM (inactive)
[31]
  GI50: > 100 µM (inactive)
[32]
  GI50: 47.3 µM (inactive)
[33]
  GI50: > 100 µM (inactive)
[34]
  GI50: 40.3 µM (inactive)
[35]
  GI50: 32.7 µM (inactive)
[36]
  GI50: > 100 µM (inactive)
[37]
  GI50: 55.1 µM (inactive)
[38]
  GI50: > 100 µM (inactive)
[39]
  GI50: 53.1 µM (inactive)
[41]
  GI50: > 100 µM (inactive)
[42]
  GI50: 77.8 µM (inactive)
[43]
  GI50: 70.5 µM (inactive)
[44]
  GI50: > 100 µM
[45]
  GI50: > 100 µM (inactive)
[46]
  GI50: > 100 µM (inactive)
[47]
  GI50: 76.7 µM (inactive)
[48]
  GI50: > 100 µM (inactive)
[49]
  GI50: > 100 µM (inactive)
[50]
  GI50: > 100 µM (inactive)
[51]
  GI50: > 100 µM (inactive)
[52]
  GI50: 82 µM (inactive)
[53]
  GI50: 53.8 µM (inactive)
